Measured values published in patent publication US20240285634A1, “COMPOUND AND METHOD FOR TREATING CHEMOTHERAPY-ASSOCIATED GASTROINTESTINAL SIDE EFFECTS” (ONQUALITY PHARMACEUTICALS CHINA LTD., priority 2021, published 2024).
Structures can show the parent of a compound that is named as a salt.

Legend:
[1] = tested on: Balb/c mice, constipation caused by continuous administration of a chemotherapeutic agent; assay: Relieving effect on constipation caused by the continuous administration of a chemotherapeutic agent (Examples 385-405); type: in vivo; conditions: for Relative remission rate (%): Fluorouracil (5-Fu) 100 mg/kg intraperitoneal injection once a day for 3 days, experimental cycle 7 days
Source text: Balb/c mice were fed for 1 week, and then divided into groups. The experiment was divided into a control group, a chemotherapeutic agent group, and a group of the compound as shown in Formula I, each of which comprised 10 mice, to perform the administration experiment, for which the administration dosage, mode, time and frequency were shown in Table 6. The control group: being injected or intragastrically administered with the same solvent as that used in the group of the compound as shown in Formula I (the administration mode and time were shown in Table 6), and then being injected or intragastrically administered with the same solvent as that used in the group of the compound as shown in Formula I (the administration mode was shown in Table 6); the chemotherapeutic agent group: being injected or intragastrically administered with the same solvent as that used in the group of the compound as shown in Formula I (the administration mode and time were shown in Table 6), and then being injected or intragastrically administered with the chemotherapeutic agent (the type, administration mode, time and dosage were shown in Table 6); the group of the compound as shown in Formula I: being injected or intragastrically administered with the compound as shown in Formula I (the administration mode and time were shown in Table 6), and then being administered with the chemotherapeutic agent (the type, administration mode, time and dosage were shown in Table 6).
(§1) The feces reduction rate was calculated with reference to the method of Ji Eun Kim (Lab Anim Res. 2016 December; 32(4): 231-240.). Feces reduction rate (%)=(the control group−the chemotherapeutic agent group or the group of the compound as shown in Formula I)/the control group*100%
(§2) It is regarded as effective remission when the feces reduction rate of mice in the group of the compound as shown in Formula I is reduced compared with that in the chemotherapeutic agent group.
(§3) The feces amount of mice within 3 hours was observed and recorded every day. At the end of the experiment, the number of mice in the group of the compound as shown in Formula I whose feces reduction rate was lower than that of mice in the chemotherapeutic agent group was recorded. Table 6 lists various animal experiment combinations of chemotherapeutic agents and the compound as shown in Formula I, as well as the corresponding experimental results.

[2] = tested on: Chemotherapeutic agent-caused constipation models of Balb/c mice; assay: Relieving effect on constipation caused by a chemotherapeutic agent (Examples 202-364); type: in vivo
Source text: Construction of mouse animal models: Chemotherapeutic agent-caused constipation models of Balb/c mice were constructed according to the administration mode and frequency of the chemotherapeutic agent as shown in Table 4. […] Thus, chemotherapeutic agent-caused constipation models of mice are very good models to mimic constipation caused by the chemotherapeutic agent.
Balb/c mice were fed for 1 week, and then divided into groups. The experiment was divided into a control group, a chemotherapeutic agent group, and a group of the compound as shown in Formula I, each of which comprised 10 mice, to perform the administration experiment, for which the administration dosage, mode, time and frequency were shown in Table 4. The control group: being injected or intragastrically administered with the same solvent as that used in the group of the compound as shown in Formula I (the administration mode and time were shown in Table 4), and then being injected or intragastrically administered with the same solvent as that used in the chemotherapeutic agent group (the administration mode was shown in Table 4); the chemotherapeutic agent group: being injected or intragastrically administered with the same solvent as that used in the group of the compound as shown in Formula I (the administration mode and time was shown in Table 4), and then being injected or intragastrically administered with the chemotherapeutic agent (the type, administration mode and dosage were shown in Table 4); the group of the compound as shown in Formula I: being injected or intragastrically administered with the compound as shown in Formula I (the administration mode and time was shown in Table 4), and then being administered with the chemotherapeutic agent (the administration mode and dosage were shown in Table 4).
as §1, §2
as §3, with “4” for “6”

| SMILES | Relative remission rate (%) ([1]; Example 398, compound 100 mg/kg intravenous injection once a day for 3 days, 2 h before the chemotherapeutic agent) | relieving effects on constipation ([1]; continuous administration of fluorouracil for less than 7 days) | relieving effects on constipation ([1]; continuous administration of the chemotherapeutic agent for 7 days or less) | Relative remission rate (%) ([2]; Example 320, Fluorouracil 125 (F) and irinotecan 240 (I) mg/kg intraperitoneal injection single, compound subcutaneous injection 100 mg/kg single, 0.5 h before chemotherapeutic agent, cycle 7 days) | Relative remission rate (%) ([2]; Example 321, Fluorouracil 125 (F) and irinotecan 240 (I) mg/kg intraperitoneal injection single, compound subcutaneous injection 100 mg/kg single, 24 h before chemotherapeutic agent, cycle 7 days) | Relative remission rate (%) ([2]; Example 349, Fluorouracil 100 (F), oxaliplatin 5 (O), irinotecan 100 (I) and tetrahydrofolic acid 100 (L) mg/kg intraperitoneal injection single, compound oral administration 150 mg/kg single, 6 h before chemotherapeutic agent, cycle 7 days) | Relative remission rate (%) ([2]; Example 350, Fluorouracil 100 (F), oxaliplatin 5 (O), irinotecan 100 (I) and tetrahydrofolic acid 100 (L) mg/kg intraperitoneal injection single, compound oral administration 150 mg/kg single, 12 h before chemotherapeutic agent, cycle 7 days) | Relative remission rate (%) ([2]; Example 362, Etoposide 60 (E) and carboplatin 5 (C) mg/kg intraperitoneal injection single, compound oral administration 100 mg/kg single, 0.5 h before chemotherapeutic agent, cycle 10 days) | feces reduction rates compared with the chemotherapeutic agent group ([2]; administered before the chemotherapeutic agent, Table 4 and FIG. 4) | Relative remission rate (%) ([1]; Example 400, compound intraperitoneal injection, 2 h before the chemotherapeutic agent, dosage cell prints 'Once a day, for 3 days', frequency cell 'Single') | Relative remission rate (%) ([1]; Example 401, compound intraperitoneal injection, 12 h before the chemotherapeutic agent, dosage cell prints 'Once a day, for 3 days', frequency cell 'Single') | Relative remission rate (%) ([2]; Example 353, Fluorouracil 100 (F), oxaliplatin 5 (O), irinotecan 100 (I) and tetrahydrofolic acid 100 (L) mg/kg intraperitoneal injection single, compound intraperitoneal injection 100 mg/kg single, 0.5 h before chemotherapeutic agent, cycle 7 days) | Relative remission rate (%) ([2]; Example 354, Fluorouracil 100 (F), oxaliplatin 5 (O), irinotecan 100 (I) and tetrahydrofolic acid 100 (L) mg/kg intraperitoneal injection single, compound intraperitoneal injection 100 mg/kg single, 12 h before chemotherapeutic agent, cycle 7 days) | Relative remission rate (%) ([2]; Example 357, Topotecan intraperitoneal injection 10 mg/kg single, compound oral administration 100 mg/kg single, 24 h before chemotherapeutic agent, cycle 14 days) | Relative remission rate (%) ([2]; Example 358, Topotecan intravenous injection 20 mg/kg single, compound oral administration 100 mg/kg single, 12 h before chemotherapeutic agent, cycle 14 days) |
| --- | --- | --- | --- | --- | --- | --- | --- | --- | --- | --- | --- | --- | --- | --- | --- |
| O=C1NCC2(CCCCC2)n2c1cc1cnc(Nc3ccc(N4CCC(N5CCOCC5)CC4)cn3)nc12 [Compound III] | 40 | significant relieving effects | have relieving effects | 50 | 20 | 30 | 30 | 50 | reduced to different degrees |  |  |  |  |  |  |
| CC(C)N1CCN(c2ccc(Nc3ncc4cc5n(c4n3)C3(CCCCC3)CNC5=O)nc2)CC1 [Compound IV hydrochloride, Lerociclibdihydrochloride] |  |  |  |  |  |  |  |  |  | 50 | 30 | 20 | 60 | 30 | 70 |
